Earlier results, collected in patent publication US20230112273A1, “Process for Producing an Aroma-Laden Gas, Aroma-Laden Gas, and Use of the Aroma-Laden Gas” (Döhler GmbH, priority 2020, published 2023).

Conditions: listed beside the composition of the aromatic substances in the laden solid phase (beer, Exemplary Embodiment 1)

| SMILES | Log P |
| --- | --- |
| CCC(C)CO (stereo not shown) [2-methyl-1-butanol] | 1.22 |
| CC(C)CCO [3-methyl-1-butanol] | 1.22 |
| CC(=O)OCCC(C)C [3-methylbutyl acetate] | 2.12 |
| CCCCCCCCCC(=O)O [decanoic acid] | 3.96 |
| CCCCCC(=O)O [hexanoic acid] | 1.84 |
| CC(C)CO [isobutanol] | 0.69 |
| CCCCCCCC(=O)OCC [octanoic acid ethyl ester] | 3.9 |
